Test results: ChEMBL document CHEMBL3132769, “Fragment growing to retain or alter the selectivity of anchored kinase hinge-binding fragments” (Medchemcomm, 2014)

What was measured:
[1] = biological target: Protein kinase C theta type (Homo sapiens) (UniProt Q04759); test: Inhibition of human truncated PKC theta expressed in baculovirus assessed as substrate phosphorylation using fluorescence-labelled peptides as substrate at 420 uM after 90 mins by microfluidic peptide phosphorylation assay
[2] = biological target: Mitogen-activated protein kinase kinase kinase kinase 4 (Homo sapiens) (UniProt O95819); test: Inhibition of human HGK catalytic domain expressed in baculovirus assessed as substrate phosphorylation using fluorescence-labelled peptides as substrate at 9 uM after 90 mins by microfluidic peptide phosphorylation assay
Sequence of Mitogen-activated protein kinase kinase kinase kinase 4 (Homo sapiens) (O95819 2-1239 limits assumed): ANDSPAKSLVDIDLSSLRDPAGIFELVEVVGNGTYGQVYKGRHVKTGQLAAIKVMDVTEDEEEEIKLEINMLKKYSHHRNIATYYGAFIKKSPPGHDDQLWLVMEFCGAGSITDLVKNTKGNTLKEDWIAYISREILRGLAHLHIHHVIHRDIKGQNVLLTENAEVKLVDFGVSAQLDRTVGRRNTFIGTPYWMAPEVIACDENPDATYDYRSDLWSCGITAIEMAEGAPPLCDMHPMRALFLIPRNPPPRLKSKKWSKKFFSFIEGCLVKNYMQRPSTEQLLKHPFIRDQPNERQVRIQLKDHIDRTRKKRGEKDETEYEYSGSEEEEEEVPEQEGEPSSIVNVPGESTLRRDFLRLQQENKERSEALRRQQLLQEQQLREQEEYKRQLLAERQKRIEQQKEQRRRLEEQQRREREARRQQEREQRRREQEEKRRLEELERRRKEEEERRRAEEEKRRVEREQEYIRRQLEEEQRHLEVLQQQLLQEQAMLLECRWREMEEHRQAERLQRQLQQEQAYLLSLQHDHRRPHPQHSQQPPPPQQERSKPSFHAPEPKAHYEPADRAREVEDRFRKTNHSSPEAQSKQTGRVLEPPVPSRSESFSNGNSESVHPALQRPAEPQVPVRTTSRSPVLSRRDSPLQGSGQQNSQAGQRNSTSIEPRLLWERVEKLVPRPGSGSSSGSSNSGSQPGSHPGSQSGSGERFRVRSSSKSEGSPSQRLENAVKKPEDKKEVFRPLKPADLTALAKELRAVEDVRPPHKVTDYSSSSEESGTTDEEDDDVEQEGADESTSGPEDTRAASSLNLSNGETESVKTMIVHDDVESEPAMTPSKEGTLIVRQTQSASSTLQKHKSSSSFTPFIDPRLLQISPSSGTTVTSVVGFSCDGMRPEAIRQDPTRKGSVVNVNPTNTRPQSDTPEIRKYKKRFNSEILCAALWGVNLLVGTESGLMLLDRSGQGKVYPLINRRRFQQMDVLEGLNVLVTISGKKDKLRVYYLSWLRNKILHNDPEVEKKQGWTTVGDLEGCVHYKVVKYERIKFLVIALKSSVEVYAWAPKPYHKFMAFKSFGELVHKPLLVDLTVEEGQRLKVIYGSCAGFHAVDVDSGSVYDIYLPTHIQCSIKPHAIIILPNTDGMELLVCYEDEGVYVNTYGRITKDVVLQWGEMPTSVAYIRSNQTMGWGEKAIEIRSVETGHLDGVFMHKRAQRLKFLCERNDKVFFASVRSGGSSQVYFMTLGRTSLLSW

[3] = biological target: T1, Serine/threonine-protein kinase D2 (Homo sapiens) (UniProt Q9BZL6); test: Inhibition of human full length PKD2 expressed in baculovirus assessed as substrate phosphorylation using fluorescence-labelled peptides as substrate at 2 uM after 90 mins by microfluidic peptide phosphorylation assay
T1 sequence (whole entry): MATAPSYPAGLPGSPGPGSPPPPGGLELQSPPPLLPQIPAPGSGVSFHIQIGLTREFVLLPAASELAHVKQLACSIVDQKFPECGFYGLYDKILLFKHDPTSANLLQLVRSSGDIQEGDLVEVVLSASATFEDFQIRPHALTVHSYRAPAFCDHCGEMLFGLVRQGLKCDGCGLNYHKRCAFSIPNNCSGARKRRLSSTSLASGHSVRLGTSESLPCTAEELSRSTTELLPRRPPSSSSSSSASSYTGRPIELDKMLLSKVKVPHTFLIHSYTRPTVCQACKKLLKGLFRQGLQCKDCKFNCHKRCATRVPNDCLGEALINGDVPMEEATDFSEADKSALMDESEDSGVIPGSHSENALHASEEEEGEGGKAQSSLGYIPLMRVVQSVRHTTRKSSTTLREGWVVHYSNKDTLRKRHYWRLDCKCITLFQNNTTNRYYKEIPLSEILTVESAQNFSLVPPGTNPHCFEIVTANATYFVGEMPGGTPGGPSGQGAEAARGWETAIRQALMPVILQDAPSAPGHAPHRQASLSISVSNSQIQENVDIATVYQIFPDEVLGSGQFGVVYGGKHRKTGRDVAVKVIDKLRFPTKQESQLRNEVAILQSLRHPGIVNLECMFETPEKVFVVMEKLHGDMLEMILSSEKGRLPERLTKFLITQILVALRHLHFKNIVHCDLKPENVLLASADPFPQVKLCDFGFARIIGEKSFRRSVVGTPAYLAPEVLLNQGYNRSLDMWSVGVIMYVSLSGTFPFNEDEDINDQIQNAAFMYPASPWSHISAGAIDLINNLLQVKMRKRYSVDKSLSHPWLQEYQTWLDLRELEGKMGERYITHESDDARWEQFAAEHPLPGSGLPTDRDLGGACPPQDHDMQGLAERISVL

[4] = biological target: Tyrosine-protein kinase HCK (Homo sapiens) (UniProt P08631); test: Inhibition of human HCK catalytic domain expressed in baculovirus assessed as substrate phosphorylation using fluorescence-labelled peptides as substrate at 2 uM after 90 mins by microfluidic peptide phosphorylation assay
Sequence of Tyrosine-protein kinase HCK (Homo sapiens) (P08631 2-526 limits assumed): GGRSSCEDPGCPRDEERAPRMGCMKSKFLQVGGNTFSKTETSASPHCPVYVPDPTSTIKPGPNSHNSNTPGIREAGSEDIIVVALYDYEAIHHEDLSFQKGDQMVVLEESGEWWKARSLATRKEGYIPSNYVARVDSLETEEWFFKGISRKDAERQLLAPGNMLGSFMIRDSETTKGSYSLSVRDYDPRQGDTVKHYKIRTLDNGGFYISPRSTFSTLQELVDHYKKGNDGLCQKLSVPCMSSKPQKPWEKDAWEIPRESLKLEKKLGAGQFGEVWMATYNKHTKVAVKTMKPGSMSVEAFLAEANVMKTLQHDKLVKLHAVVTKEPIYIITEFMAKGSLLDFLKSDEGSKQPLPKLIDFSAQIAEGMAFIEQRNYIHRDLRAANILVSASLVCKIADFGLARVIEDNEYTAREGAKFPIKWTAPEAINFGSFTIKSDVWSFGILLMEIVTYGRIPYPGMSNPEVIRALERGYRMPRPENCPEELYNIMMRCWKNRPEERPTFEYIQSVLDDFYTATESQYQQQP

[5] = biological target: Mitogen-activated protein kinase 1 (Homo sapiens) (UniProt P28482); settings: 0.1 uM
Sequence of Mitogen-activated protein kinase 1 (Homo sapiens) (P28482 whole entry, the tested form may be a part): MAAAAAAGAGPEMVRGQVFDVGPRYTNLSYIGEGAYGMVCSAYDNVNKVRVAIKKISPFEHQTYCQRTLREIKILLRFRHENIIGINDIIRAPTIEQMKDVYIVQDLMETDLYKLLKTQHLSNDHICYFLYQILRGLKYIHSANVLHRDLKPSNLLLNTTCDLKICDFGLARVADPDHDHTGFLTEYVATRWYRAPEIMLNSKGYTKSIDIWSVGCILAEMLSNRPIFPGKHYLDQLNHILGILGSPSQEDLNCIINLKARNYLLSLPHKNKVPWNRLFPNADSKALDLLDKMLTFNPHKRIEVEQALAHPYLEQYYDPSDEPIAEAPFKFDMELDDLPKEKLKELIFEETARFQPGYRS
Description: Inhibition of human full length ERK2 expressed in Escherichia coli cell assessed as substrate phosphorylation using fluorescence-labelled peptides as substrate at 0.1 uM after 90 mins by microfluidic peptide phosphorylation assay

[6] = biological target: Calcium/calmodulin-dependent protein kinase type II subunit beta (Homo sapiens) (UniProt Q13554); test: Inhibition of human CAMK2 beta catalytic domain expressed in baculovirus assessed as substrate phosphorylation using fluorescence-labelled peptides as substrate at 0.06 uM after 90 mins by microfluidic peptide phosphorylation assay
Sequence of Calcium/calmodulin-dependent protein kinase type II subunit beta (Homo sapiens) (Q13554 whole entry, the tested form may be a part): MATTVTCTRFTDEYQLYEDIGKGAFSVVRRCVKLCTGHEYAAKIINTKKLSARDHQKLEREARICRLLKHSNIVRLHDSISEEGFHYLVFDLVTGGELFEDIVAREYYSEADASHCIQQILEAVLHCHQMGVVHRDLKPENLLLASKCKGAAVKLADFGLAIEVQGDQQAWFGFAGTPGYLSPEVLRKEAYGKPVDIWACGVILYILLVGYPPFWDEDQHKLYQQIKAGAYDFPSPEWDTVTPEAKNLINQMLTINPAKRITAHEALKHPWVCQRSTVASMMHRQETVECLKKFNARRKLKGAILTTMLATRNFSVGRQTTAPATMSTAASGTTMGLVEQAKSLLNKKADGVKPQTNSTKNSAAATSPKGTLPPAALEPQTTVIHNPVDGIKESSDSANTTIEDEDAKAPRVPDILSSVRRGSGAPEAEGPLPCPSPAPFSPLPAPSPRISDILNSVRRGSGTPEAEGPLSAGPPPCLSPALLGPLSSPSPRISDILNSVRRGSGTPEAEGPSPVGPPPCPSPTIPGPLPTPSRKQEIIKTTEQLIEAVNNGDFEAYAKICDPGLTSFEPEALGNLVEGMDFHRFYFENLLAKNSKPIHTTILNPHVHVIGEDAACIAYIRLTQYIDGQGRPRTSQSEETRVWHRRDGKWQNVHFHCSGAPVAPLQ

[7] = biological target: Protein kinase C theta type (Homo sapiens) (UniProt Q04759); test: Inhibition of human truncated PKC theta expressed in baculovirus assessed as substrate phosphorylation using fluorescence-labelled peptides as substrate at 0.06 uM after 90 mins by microfluidic peptide phosphorylation assay
[8] = test system: T2, Receptor-type tyrosine-protein kinase FLT3 (Homo sapiens), P36888 [D835Y]; test: Inhibition of human FLT3 D835Y mutant catalytic domain expressed in baculovirus assessed as substrate phosphorylation using fluorescence-labelled peptides as substrate at 70 uM after 90 mins by microfluidic peptide phosphorylation assay
T2 sequence (whole entry): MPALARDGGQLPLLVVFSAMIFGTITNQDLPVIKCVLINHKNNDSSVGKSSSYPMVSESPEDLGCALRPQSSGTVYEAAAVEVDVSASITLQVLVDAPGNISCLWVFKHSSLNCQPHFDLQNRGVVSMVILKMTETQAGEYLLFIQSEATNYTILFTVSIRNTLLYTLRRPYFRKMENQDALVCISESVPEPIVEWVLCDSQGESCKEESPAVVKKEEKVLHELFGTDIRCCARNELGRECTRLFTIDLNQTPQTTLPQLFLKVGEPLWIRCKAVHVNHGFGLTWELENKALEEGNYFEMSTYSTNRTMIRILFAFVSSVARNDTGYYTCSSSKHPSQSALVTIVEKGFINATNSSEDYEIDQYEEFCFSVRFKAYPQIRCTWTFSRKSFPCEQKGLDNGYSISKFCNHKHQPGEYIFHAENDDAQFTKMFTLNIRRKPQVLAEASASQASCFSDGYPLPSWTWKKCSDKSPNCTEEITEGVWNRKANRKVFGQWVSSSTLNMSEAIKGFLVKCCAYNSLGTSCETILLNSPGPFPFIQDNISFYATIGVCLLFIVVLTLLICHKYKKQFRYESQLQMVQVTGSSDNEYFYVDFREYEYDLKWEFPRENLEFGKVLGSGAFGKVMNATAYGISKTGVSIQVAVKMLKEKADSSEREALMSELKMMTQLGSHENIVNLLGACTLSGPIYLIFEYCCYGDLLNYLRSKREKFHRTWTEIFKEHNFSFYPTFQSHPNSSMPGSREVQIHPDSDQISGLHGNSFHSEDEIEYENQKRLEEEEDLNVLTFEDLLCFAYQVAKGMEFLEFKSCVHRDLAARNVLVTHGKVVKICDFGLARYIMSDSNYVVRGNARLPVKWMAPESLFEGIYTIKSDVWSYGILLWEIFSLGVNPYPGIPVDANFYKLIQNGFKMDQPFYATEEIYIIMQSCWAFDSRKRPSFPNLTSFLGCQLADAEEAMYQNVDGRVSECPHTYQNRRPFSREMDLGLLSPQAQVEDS

Sequence of Protein kinase C theta type (Homo sapiens) (Q04759 whole entry, looked up, the tested form may be a part): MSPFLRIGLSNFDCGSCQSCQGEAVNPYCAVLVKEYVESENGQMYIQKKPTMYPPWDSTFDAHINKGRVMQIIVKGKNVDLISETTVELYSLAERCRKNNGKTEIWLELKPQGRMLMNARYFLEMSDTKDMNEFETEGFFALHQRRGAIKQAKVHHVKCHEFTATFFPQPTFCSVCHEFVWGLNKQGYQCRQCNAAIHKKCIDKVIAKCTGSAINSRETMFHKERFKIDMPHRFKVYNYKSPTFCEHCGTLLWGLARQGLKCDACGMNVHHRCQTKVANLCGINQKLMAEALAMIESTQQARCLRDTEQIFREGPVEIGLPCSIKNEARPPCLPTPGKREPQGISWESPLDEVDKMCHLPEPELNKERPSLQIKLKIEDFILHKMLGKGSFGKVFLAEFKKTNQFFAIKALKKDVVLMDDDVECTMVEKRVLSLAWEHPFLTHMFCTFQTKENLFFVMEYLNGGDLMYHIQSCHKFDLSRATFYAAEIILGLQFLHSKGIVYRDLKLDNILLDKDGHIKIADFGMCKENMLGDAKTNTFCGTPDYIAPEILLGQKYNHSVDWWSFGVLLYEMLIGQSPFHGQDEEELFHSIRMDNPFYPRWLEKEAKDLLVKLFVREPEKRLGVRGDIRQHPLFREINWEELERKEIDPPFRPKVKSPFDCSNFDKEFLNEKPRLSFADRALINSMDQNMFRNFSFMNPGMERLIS

c1nc(N2CCOCC2)c2nc[nH]c2n1
inhibition [1]: 67.5%

NCC1CN(c2ncnc3[nH]c4cnccc4c23)CCO1 (stereo not drawn)
inhibition [2]: 54.5%

NC1CCN(c2ncnc3[nH]ccc23)CC1
inhibition [3]: 6.5% | inhibition [4]: 3%

C[C@H](CN(C)C)Oc1nc(Nc2cc3cccc(Cl)c3cn2)cnc1C#N
inhibition [5]: 0%

NC1(Cc2ccc(Cl)cc2)CCN(c2ncnc3[nH]ccc23)CC1
inhibition [6]: 0% | inhibition [7]: 4.5%

CNCc1ccc(-c2ncnc3[nH]cnc23)cc1
inhibition [8]: 69%
